In publication PMC5218480 (PLoS ONE, 2017):

Test system: MV-4-11 cells
Test: Gene expression microarray analysis (Affymetrix PrimeView) and GSEA
Type: cell-based, human
Set-up: RFU PODN (11730768_x_at) / Fold change /veh PODN (11730768_x_at) / RFU LINC00158 (11744669_a_at) / Fold change /veh LINC00158 (11744669_a_at) / RFU DUSP10 (11751237_a_at) / Fold change /veh DUSP10 (11751237_a_at) / RFU ID3 (11757404_x_at) / Fold change /veh ID3 (11757404_x_at) / RFU PLEKHG5 (11737974_s_at) / Fold change /veh PLEKHG5 (11737974_s_at) / RFU LRRC4B (11730491_at) / Fold change /veh LRRC4B (11730491_at) / RFU GIMAP4 (11747438_a_at) / Fold change /veh GIMAP4 (11747438_a_at) / RFU KRT8 (11758183_x_at) / Fold change /veh KRT8 (11758183_x_at) / RFU CNN1 (11734310_a_at) / Fold change /veh CNN1 (11734310_a_at) / RFU VPS37D (11726825_at) / Fold change /veh VPS37D (11726825_at) / RFU C10orf10 (11716522_x_at) / Fold change /veh C10orf10 (11716522_x_at) / RFU KIR2DL2 /// KIR2DL4 /// KIR2DL5A /// KIR2DL5B /// KIR2DS1 /// KIR2DS2 /// KIR2DS3 /// KIR2DS4 /// KIR3DL3 /// KIR3DL3 /// KIR3DS1 (11738374_at) / Fold change /veh KIR2DL2 /// KIR2DL4 /// KIR2DL5A /// KIR2DL5B /// KIR2DS1 /// KIR2DS2 /// KIR2DS3 /// KIR2DS4 /// KIR3DL3 /// KIR3DL3 /// KIR3DS1 (11738374_at) / RFU C1QL1 (11718748_at) / Fold change /veh C1QL1 (11718748_at) / RFU TMPRSS4 (11747572_a_at) / Fold change /veh TMPRSS4 (11747572_a_at) / RFU HAMP (11756126_x_at) / Fold change /veh HAMP (11756126_x_at) / RFU RNFT2 (11725882_a_at) / Fold change /veh RNFT2 (11725882_a_at) / RFU NR4A2 (11747474_a_at) / Fold change /veh NR4A2 (11747474_a_at) / RFU ABCC12 (11746883_a_at) / Fold change /veh ABCC12 (11746883_a_at) / RFU TMEM136 (11760407_x_at) / Fold change /veh TMEM136 (11760407_x_at) / RFU CLDN22 /// WWC2 (11732394_at) / Fold change /veh CLDN22 /// WWC2 (11732394_at) / RFU HLA-DPB1 (11760878_x_at) / Fold change /veh HLA-DPB1 (11760878_x_at) / RFU SPINT1 (11716480_a_at) / Fold change /veh SPINT1 (11716480_a_at) / RFU GAP43 (11754022_s_at) / Fold change /veh GAP43 (11754022_s_at) / RFU A4GNT (11735810_at) / Fold change /veh A4GNT (11735810_at) / RFU PRB3 (11715151_x_at) / Fold change /veh PRB3 (11715151_x_at) / RFU TUBB4B (11761932_at) / Fold change /veh TUBB4B (11761932_at) / RFU CAPN14 (11732068_a_at) / Fold change /veh CAPN14 (11732068_a_at) / RFU TMCC2 (11721928_a_at) / Fold change /veh TMCC2 (11721928_a_at) / RFU IRGQ (11745062_a_at) / Fold change /veh IRGQ (11745062_a_at) / RFU FAM174B (11720279_a_at) / Fold change /veh FAM174B (11720279_a_at) / RFU TMPRSS4 (11748680_a_at) / Fold change /veh TMPRSS4 (11748680_a_at) / RFU FAM212B (11763350_a_at) / Fold change /veh FAM212B (11763350_a_at) / RFU PLEKHG5 (11743358_a_at) / Fold change /veh PLEKHG5 (11743358_a_at) / RFU ZSCAN30 (11745921_a_at) / Fold change /veh ZSCAN30 (11745921_a_at) / RFU CMKLR1 (11741424_a_at) / Fold change /veh CMKLR1 (11741424_a_at) / RFU LOC101060620 /// MAPK8IP1 (11723275_at) / Fold change /veh LOC101060620 /// MAPK8IP1 (11723275_at) / RFU SPTSSB (11747773_x_at) / Fold change /veh SPTSSB (11747773_x_at) / RFU PRSS12 (11739890_at) / Fold change /veh PRSS12 (11739890_at) / RFU BIN1 (11741810_x_at) / Fold change /veh BIN1 (11741810_x_at) / RFU WNT11 (11732464_a_at) / Fold change /veh WNT11 (11732464_a_at) / RFU C10orf10 (11716521_a_at) / Fold change /veh C10orf10 (11716521_a_at) / RFU C5orf56 (11738089_at) / Fold change /veh C5orf56 (11738089_at) / RFU CYB561 (11721691_x_at) / Fold change /veh CYB561 (11721691_x_at) / RFU ANKRD19P (11752326_a_at) / Fold change /veh ANKRD19P (11752326_a_at) / RFU OR2T12 /// OR2T33 /// OR2T8 (11738714_s_at) / Fold change /veh OR2T12 /// OR2T33 /// OR2T8 (11738714_s_at) / RFU VCAN (11748164_a_at) / Fold change /veh VCAN (11748164_a_at) / RFU JSRP1 (11732532_at) / Fold change /veh JSRP1 (11732532_at) / RFU KRTAP10-11 (11738290_x_at) / Fold change /veh KRTAP10-11 (11738290_x_at) / RFU MYO3A (11730013_a_at) / Fold change /veh MYO3A (11730013_a_at) / RFU EBF3 (11725865_a_at) / Fold change /veh EBF3 (11725865_a_at) / RFU CAMK2N1 (11719241_x_at) / Fold change /veh CAMK2N1 (11719241_x_at) / RFU C5orf56 (11738088_a_at) / Fold change /veh C5orf56 (11738088_a_at) / RFU OLFML3 (11715873_a_at) / Fold change /veh OLFML3 (11715873_a_at) / RFU LOC100653217 /// NTM (11731650_a_at) / Fold change /veh LOC100653217 /// NTM (11731650_a_at) / RFU MAPK11 (11762145_a_at) / Fold change /veh MAPK11 (11762145_a_at) / RFU FIZ1 (11724087_x_at) / Fold change /veh FIZ1 (11724087_x_at) / RFU OASL (11726364_x_at) / Fold change /veh OASL (11726364_x_at) / RFU SOX15 (11748057_x_at) / Fold change /veh SOX15 (11748057_x_at) / RFU CD79A (11719716_a_at) / Fold change /veh CD79A (11719716_a_at) / RFU HIST1H1D (11736915_at) / Fold change /veh HIST1H1D (11736915_at) / RFU CASKIN2 (11723855_a_at) / Fold change /veh CASKIN2 (11723855_a_at) / RFU LOC730098 (11760151_x_at) / Fold change /veh LOC730098 (11760151_x_at) / RFU OR4N2 (11742367_at) / Fold change /veh OR4N2 (11742367_at) / RFU PRRT2 (11749266_a_at) / Fold change /veh PRRT2 (11749266_a_at) / RFU SNX32 (11753110_a_at) / Fold change /veh SNX32 (11753110_a_at) / RFU CDHR5 (11726645_a_at) / Fold change /veh CDHR5 (11726645_a_at) / RFU RCAN1 (11760418_a_at) / Fold change /veh RCAN1 (11760418_a_at) / RFU FAM167A (11723789_a_at) / Fold change /veh FAM167A (11723789_a_at) / RFU FAM26E (11764081_at) / Fold change /veh FAM26E (11764081_at) / RFU ISYNA1 (11749810_s_at) / Fold change /veh ISYNA1 (11749810_s_at) / RFU ACY1 (11761880_at) / Fold change /veh ACY1 (11761880_at) / RFU 11764098_at / Fold change /veh 11764098_at / RFU SAMD14 (11745864_x_at) / Fold change /veh SAMD14 (11745864_x_at) / RFU NPB (11741838_a_at) / Fold change /veh NPB (11741838_a_at) / RFU TMPRSS6 (11731388_a_at) / Fold change /veh TMPRSS6 (11731388_a_at) / RFU KRTAP10-2 (11738614_at) / Fold change /veh KRTAP10-2 (11738614_at) / RFU ARHGAP8 /// PRR5-ARHGAP8 (11727945_x_at) / Fold change /veh ARHGAP8 /// PRR5-ARHGAP8 (11727945_x_at) / RFU KRTAP5-7 /// NADSYN1 (11734609_at) / Fold change /veh KRTAP5-7 /// NADSYN1 (11734609_at) / RFU RASL12 (11751679_a_at) / Fold change /veh RASL12 (11751679_a_at) / RFU CDKN2B (11736163_a_at) / Fold change /veh CDKN2B (11736163_a_at) / RFU PRF1 (11729649_at) / Fold change /veh PRF1 (11729649_at) / RFU, ZNF638 /// ZNF638-IT1 / Fold change vs veh, ZNF638 /// ZNF638-IT1 / RFU, PANK3 / Fold change vs veh, PANK3 / RFU, SH3YL1 / Fold change vs veh, SH3YL1 / RFU, ZEB2 / Fold change vs veh, ZEB2 / RFU, NRIP1 / Fold change vs veh, NRIP1 / RFU, PTTG1IP / Fold change vs veh, PTTG1IP / RFU, CAPN2 / Fold change vs veh, CAPN2 / RFU, MED14 / Fold change vs veh, MED14 / RFU, SNORA58 / Fold change vs veh, SNORA58 / RFU, C1orf63 / Fold change vs veh, C1orf63 / RFU, LRRFIP1 / Fold change vs veh, LRRFIP1 / RFU, NDUFAF7 / Fold change vs veh, NDUFAF7 / RFU, SLC12A2 / Fold change vs veh, SLC12A2 / RFU, IBTK / Fold change vs veh, IBTK / RFU, ESF1 / Fold change vs veh, ESF1 / Fold change vs veh, TMEM50B / RFU, TAOK1 / Fold change vs veh, TAOK1 / RFU, ACBD3 / Fold change vs veh, ACBD3 / RFU, TMA16 / Fold change vs veh, TMA16 / RFU, RWDD3 / Fold change vs veh, RWDD3 / RFU, BCAT1 / Fold change vs veh, BCAT1 / RFU, EDEM3 / Fold change vs veh, EDEM3 / RFU, TMEM33 / Fold change vs veh, TMEM33 / RFU, WDR75 / Fold change vs veh, WDR75 / RFU, AHCTF1 / Fold change vs veh, AHCTF1 / RFU, TFRC / Fold change vs veh, TFRC / RFU, ZDHHC17 / Fold change vs veh, ZDHHC17 / RFU, NOM1 / Fold change vs veh, NOM1 / RFU, ARL8B / Fold change vs veh, ARL8B / RFU, ZBTB11 / Fold change vs veh, ZBTB11 / RFU, TAMM41 / Fold change vs veh, TAMM41 / RFU, KIAA1704 /// LOC100996395 / Fold change vs veh, KIAA1704 /// LOC100996395 / RFU, ING1 / Fold change vs veh, ING1 / RFU, TRMT61B / Fold change vs veh, TRMT61B / RFU, FUBP3 / Fold change vs veh, FUBP3 / RFU, TP53 / Fold change vs veh, TP53 / RFU, TNKS2 / Fold change vs veh, TNKS2 / RFU, ZFP14 / Fold change vs veh, ZFP14 / RFU, ACTR2 / Fold change vs veh, ACTR2 / RFU, PPP3R1 / Fold change vs veh, PPP3R1 / RFU, PIK3R1 / Fold change vs veh, PIK3R1 / RFU, HNRNPA1 / Fold change vs veh, HNRNPA1 / RFU, RNF170 / Fold change vs veh, RNF170 / RFU, ZNF28 / Fold change vs veh, ZNF28 / RFU, RNGTT / Fold change vs veh, RNGTT / RFU, OGT / Fold change vs veh, OGT / RFU, BRD1 / Fold change vs veh, BRD1 / RFU, MARS / Fold change vs veh, MARS / RFU, ZNF655 / Fold change vs veh, ZNF655 / RFU, FAHD1 / Fold change vs veh, FAHD1 / RFU, BDP1 / Fold change vs veh, BDP1 / RFU, LRRCC1 / Fold change vs veh, LRRCC1 / RFU, ARID1A / Fold change vs veh, ARID1A / RFU, ZNF146 / Fold change vs veh, ZNF146 / RFU, ZNF330 / Fold change vs veh, ZNF330 / RFU, GPN3 / Fold change vs veh, GPN3 / RFU, C9orf123 / Fold change vs veh, C9orf123 / RFU, N4BP2L2 / Fold change vs veh, N4BP2L2 / RFU, ARFIP1 / Fold change vs veh, ARFIP1 / RFU, FAM179B / Fold change vs veh, FAM179B / RFU, BCL10 / Fold change vs veh, BCL10 / RFU, UHRF1BP1L / Fold change vs veh, UHRF1BP1L / RFU, BET1 / Fold change vs veh, BET1 / RFU, CNOT2 / Fold change vs veh, CNOT2 / RFU, ZNF268 / Fold change vs veh, ZNF268 / Fold change vs veh, ZNF507 / RFU, DGCR2 / Fold change vs veh, DGCR2 / RFU, WDSUB1 / Fold change vs veh, WDSUB1 / Fold change vs veh, HSP90B1 /// MIR3652 / RFU, ADSS / Fold change vs veh, ADSS / RFU, GK / Fold change vs veh, GK / RFU, ZNF148 / Fold change vs veh, ZNF148 / RFU, TAF9 / Fold change vs veh, TAF9 / RFU, SLC1A5 / Fold change vs veh, SLC1A5 / RFU, SLMO2 / Fold change vs veh, SLMO2 / RFU, ABCC4 / Fold change vs veh, ABCC4 / RFU, LOC101060439 /// RAP1B / Fold change vs veh, LOC101060439 /// RAP1B / RFU, RFX7 / Fold change vs veh, RFX7 / RFU, GTPBP10 / Fold change vs veh, GTPBP10 / RFU, CNEP1R1 / Fold change vs veh, CNEP1R1 / RFU, BIVM-ERCC5 /// ERCC5 / Fold change vs veh, BIVM-ERCC5 /// ERCC5 / RFU, ILF3 / Fold change vs veh, ILF3 / RFU 11762660_at / Fold change /veh 11762660_at / RFU VCAN (11757783_s_at) / Fold change /veh VCAN (11757783_s_at) / RFU DDX43 (11728927_at) / Fold change /veh DDX43 (11728927_at) / RFU KRT8 (11758188_x_at) / Fold change /veh KRT8 (11758188_x_at) / RFU NKD1 (11759106_at) / Fold change /veh NKD1 (11759106_at) / RFU SRD5A1 (11742802_a_at) / Fold change /veh SRD5A1 (11742802_a_at) / RFU TPSAB1 /// TPSB2 (11721975_s_at) / Fold change /veh TPSAB1 /// TPSB2 (11721975_s_at) / RFU GSTM3 (11746129_a_at) / Fold change /veh GSTM3 (11746129_a_at) / RFU IL23R (11737362_x_at) / Fold change /veh IL23R (11737362_x_at) / RFU TMEM51 (11727254_a_at) / Fold change /veh TMEM51 (11727254_a_at) / RFU PIWIL2 (11732686_x_at) / Fold change /veh PIWIL2 (11732686_x_at) / RFU ORM1 (11744905_x_at) / Fold change /veh ORM1 (11744905_x_at) / RFU CCDC152 (11743942_at) / Fold change /veh CCDC152 (11743942_at) / RFU ECM1 (11717891_a_at) / Fold change /veh ECM1 (11717891_a_at) / RFU IL23R (11748794_a_at) / Fold change /veh IL23R (11748794_a_at) / RFU TNFAIP8L3 (11732012_x_at) / Fold change /veh TNFAIP8L3 (11732012_x_at) / RFU MBOAT4 (11741988_at) / Fold change /veh MBOAT4 (11741988_at) / RFU 11764193_at / Fold change /veh 11764193_at / RFU TMEM53 (11763286_at) / Fold change /veh TMEM53 (11763286_at) / RFU MAGEB2 (11727129_at) / Fold change /veh MAGEB2 (11727129_at) / RFU TMEM200A (11744735_a_at) / Fold change /veh TMEM200A (11744735_a_at) / RFU CCDC152 (11751479_a_at) / Fold change /veh CCDC152 (11751479_a_at) / RFU FAM211A (11726209_a_at) / Fold change /veh FAM211A (11726209_a_at) / RFU RGS16 (11746705_a_at) / Fold change /veh RGS16 (11746705_a_at) / RFU VCAN (11755009_s_at) / Fold change /veh VCAN (11755009_s_at) / RFU RHOB (11743442_s_at) / Fold change /veh RHOB (11743442_s_at) / RFU RGS16 (11720943_a_at) / Fold change /veh RGS16 (11720943_a_at) / RFU RGS16 (11720944_at) / Fold change /veh RGS16 (11720944_at) / RFU, VPS4B / Fold change vs veh, VPS4B / RFU, CREB1 / Fold change vs veh, CREB1 / RFU, DNAJC13 / Fold change vs veh, DNAJC13 / RFU, GNAQ / Fold change vs veh, GNAQ / RFU, CDK5R1 / Fold change vs veh, CDK5R1 / RFU, ZRANB3 / Fold change vs veh, ZRANB3 / RFU, CUL4A / Fold change vs veh, CUL4A / RFU, CCNY / Fold change vs veh, CCNY / RFU, UFL1 / Fold change vs veh, UFL1 / RFU, COG3 / Fold change vs veh, COG3 / RFU, DIAPH2 / Fold change vs veh, DIAPH2 / RFU, SKA2 / Fold change vs veh, SKA2 / RFU, AFF3 / Fold change vs veh, AFF3 / RFU, LMF1 / Fold change vs veh, LMF1 / RFU, IPO11 / Fold change vs veh, IPO11 / RFU, DFFB / Fold change vs veh, DFFB / RFU, FOXP1 / Fold change vs veh, FOXP1 / RFU, CARD8 / Fold change vs veh, CARD8 / RFU, STRN3 / Fold change vs veh, STRN3 / RFU, ADK / Fold change vs veh, ADK / RFU, RASSF2 / Fold change vs veh, RASSF2 / RFU, WIPF1 / Fold change vs veh, WIPF1 / RFU, LARP1B / Fold change vs veh, LARP1B / RFU, RASA1 / Fold change vs veh, RASA1 / RFU, RB1 / Fold change vs veh, RB1 / RFU, PPFIA1 / Fold change vs veh, PPFIA1 / RFU, MAT2A / Fold change vs veh, MAT2A / RFU, CCT5 / Fold change vs veh, CCT5 / RFU, WDR92 / Fold change vs veh, WDR92 / RFU, CUX1 / Fold change vs veh, CUX1 / RFU, TTC7A / Fold change vs veh, TTC7A / RFU, TMEM135 / Fold change vs veh, TMEM135 / RFU, DEPTOR / Fold change vs veh, DEPTOR / RFU, CPM / Fold change vs veh, CPM / RFU, DNAJB6 / Fold change vs veh, DNAJB6 / RFU, CACNA2D3 / Fold change vs veh, CACNA2D3 / RFU, DTX4 / Fold change vs veh, DTX4 / RFU, TFCP2 / Fold change vs veh, TFCP2 / RFU, GMCL1 /// GMCL1P1 / Fold change vs veh, GMCL1 /// GMCL1P1 / RFU, AEBP2 / Fold change vs veh, AEBP2 / RFU, SNHG1 /// SNORD22 /// SNORD25 /// SNORD26 /// SNORD27 /// SNORD28 /// SNORD29 /// SNORD31 / Fold change vs veh, SNHG1 /// SNORD22 /// SNORD25 /// SNORD26 /// SNORD27 /// SNORD28 /// SNORD29 /// SNORD31 / Fold change (Aza/veh), C12orf56 (ProbeSet 11735607_a_at) / Fold change (ACY-1035/veh), C12orf56 (ProbeSet 11735607_a_at) / Fold change (Aza/veh), FGFR1OP (ProbeSet 11751329_s_at) / Fold change (ACY-1035/veh), FGFR1OP (ProbeSet 11751329_s_at) / Fold change (Aza/veh), VPS36 (ProbeSet 11739960_a_at) / Fold change (ACY-1035/veh), VPS36 (ProbeSet 11739960_a_at) / RFU SYPL1 (11715823_x_at) / Fold change /veh SYPL1 (11715823_x_at) / RFU IGFBP7 (11715501_s_at) / Fold change /veh IGFBP7 (11715501_s_at) / RFU REEP3 (11722064_at) / Fold change /veh REEP3 (11722064_at) / RFU IGLL1 (11728026_x_at) / Fold change /veh IGLL1 (11728026_x_at): dose or concentration left out as unconfirmed
Settings: ProbeSet 11721611_a_at; LIST D

In the case of Nc1ncn([C@@H]2O[C@H](CO)[C@@H](O)[C@H]2O)c(=O)n1 [azacitidine], the “Fold change vs veh, IPO11” value is reported as 0.66.
